The subject of test [1] is Staphylococcus aureus Rassell. In words: MIC, broth dilution method. The note with it: 20 h, read-out: Minimum inhibitory concentration. In general terms: Dilution methods test growth across graded concentrations, often in twofold steps.
The test system of test [2] is Streptococcus pyogenes NY-5. In words: MIC, broth dilution method. The settings on record: for MIC: Streptococcus pyogenes, NY5, 20 h, read-out: Minimum inhibitory concentration.
The subject of test [3] is Enterobacter cloacae E-16. In words: MIC, broth dilution method. In kind it is cell-based. The note with it: for MIC: Enterobacter cloacae, read-out: Minimum inhibitory concentration. Here is the method: Sodium salt of the antibiotic PS-7 was dissolved and diluted with the BRAIN HEART INFUSION BROTH "Eiken" at a concentration between 5 μg/ml and 100 μg/ml. The solution was further diluted with the same medium to obtain a series of geometric concentrations. To the serial dilutions were added the seed cultures prepared by shaking culture of various test microorganisms shown in Tab. 5 in the BRAIN HEART INFUSION GROTH at 28° C. for 18 hours, the final cell count being about 1×10^5 /ml. […] The lowest concentration at which no cell growth was observed was the minimum inhibitory concentration of the antibiotic PS-7 on the test microorganism. […] The minimum inhibitory concentrations on test strains were determined in the same manner as mentioned above.

Test [4] deals with Klebsiella pneumoniae K-2. In words: MIC, broth dilution method. The note with it: for MIC: Klebsiella pneumoniae, K2, 20 h, read-out: Minimum inhibitory concentration.
The test system of the next test is Proteus sp. P-22. In words: MIC, broth dilution method. The note with it: 20 h, read-out: Minimum inhibitory concentration.
Another test concerns Proteus rettgeri P-7. In words: MIC, broth dilution method. The note with it: Providencia rettgeri, P7, 20 h, read-out: Minimum inhibitory concentration.
A further test deals with Enterobacter sp. E-8. In words: MIC, broth dilution method. The note with it: SP.E8, 20 h, read-out: Minimum inhibitory concentration.
In test [5] the test system is Citrobacter freundii E-9. In words: MIC, broth dilution method. In kind it is cell-based. The note with it: for MIC: Citrobacter freundii, read-out: Minimum inhibitory concentration. As to the method:
(§1) Sodium salt of the antibiotic PS-7 was dissolved and diluted with the BRAIN HEART INFUSION BROTH "Eiken" at a concentration between 5 μg/ml and 100 μg/ml. The solution was further diluted with the same medium to obtain a series of geometric concentrations. To the serial dilutions were added the seed cultures prepared by shaking culture of various test microorganisms shown in Tab. 5 in the BRAIN HEART INFUSION GROTH at 28° C. for 18 hours, the final cell count being about 1×10^5 /ml. […] The lowest concentration at which no cell growth was observed was the minimum inhibitory concentration of the antibiotic PS-7 on the test microorganism. […] . The minimum inhibitory concentrations on test strains were determined in the same manner as mentioned above. […] For the comparison, the results on the known antibiotics Cephazolin and Cefoxitin are also given in the same table.

Test [6] concerns Alcaligenes faecalis B-326. In words: MIC, broth dilution method. In kind it is cell-based. The settings on record: for MIC: Alcaligenes faecalis, read-out: Minimum inhibitory concentration. As to the method: as §1
Test [7] has as its system Staphylococcus aureus FDA 209P. In words: MIC, broth dilution method. In kind it is cell-based. The settings on record: FDA209P, read-out: Minimum inhibitory concentration. Here is the method:
as §1

Test [8] has as its system Diplococcus pneumoniae Type III. In words: MIC, broth dilution method. In kind it is cell-based. The note with it: Streptococcus pneumoniae, read-out: Minimum inhibitory concentration. Here is the method: as §1
Test [9] concerns Bacillus subtilis ATCC 6633. In words: MIC, broth dilution method. The settings on record: ATCC6633, 20 h, read-out: Minimum inhibitory concentration.
Test [10] concerns Enterobacter aerogenes E-19. In words: MIC, broth dilution method. The note with it: Klebsiella aerogenes, E19, 20 h, read-out: Minimum inhibitory concentration.
A further test concerns Providencia sp. P-8. In words: MIC, broth dilution method. The settings on record: SP.P8, 20 h, read-out: Minimum inhibitory concentration.
Test [11] has as its system Serratia marcescens S-18. In words: MIC, broth dilution method. The note with it: S18, 20 h, read-out: Minimum inhibitory concentration.
Test [12] has as its system Staphylococcus aureus FDA 209P. In words: MIC, broth dilution method. In kind it is cell-based. The note with it: for MIC: Staphylococcus aureus, FDA209P, Table 7, no unit in the head, read-out: Minimum inhibitory concentration.
Test [13] relates to Proteus vulgaris P-5. In words: MIC, broth dilution method. The settings on record: for MIC: Proteus vulgaris, P5, 20 h, read-out: Minimum inhibitory concentration.
For another test, the system named is Proteus mirabilis P-6. In words: MIC, broth dilution method. The note with it: P6, 20 h, read-out: Minimum inhibitory concentration.
Test [14] relates to Staphylococcus aureus Bx-1633. In words: MIC, broth dilution method. The settings on record: BX1633, 20 h, read-out: Minimum inhibitory concentration.
Test [15] has as its system Diplococcus pneumoniae Type III. In words: MIC, broth dilution method. In kind it is cell-based.
The subject of test [16] is Proteus vulgaris P-5. In words: Potentiating and synergistic effect, pulp disc inhibition zone on agar plate. In kind it is cell-based. As to the method:
(§2) 10 ml of 2.5 folds diluted nutrient agar (pH 7.0) containing 50 μg/ml of penicillin G or cephaloridine was seeded with the β-lactamase producing and β-lactam-resistant microorganisms and poured in a 9 cm Petri dish to provide the bio-assay agar plate. […] A control assay plate was similarly prepared without penicillin G or cephaloridine. As reference antibiotics, 10,000 μg/ml of penicillin G or 20 μl of cephaloridine were disc-assayed under the same conditions.
(§3) Cepholoridine was added to a 2.5-times diluted nutrient agar, pH 7.0 and the medium was inoculated with a β-lactam-producing strain that produceds β-lactamase. Ten ml of the medium was spread and solidified in a petri dish of 9 cm in diameter to prepare an assay plate. […] Each 20 μl of the solution and its 2- and 4-times diluted solutions was soaked in a pulp disc of 8 mm in diameter. To the surface of the above nutrient agar was placed the pulp disc and the size of the growth inhibitory zone around the disc was examined after incubation at 35° C. for 18 hours. […] In addition, for the comparison, a similar experiment was also performed with a pulp disk soaked with 20 μl of 10,000 μg/ml Penicillin G or Cepholoridine solution in place of the antibiotic PS-7.

Test [17] relates to β-lactamase-producing, β-lactam-resistant bacteria. In words: Increase of the antibiotic activity of other antibiotics (summary in words). The note with it: β-lactamase-producing bacteria such as Proteus vulgaris, Serratia marcescens. In kind it is cell-based. As to the method: as §2, §3
Test [18] concerns Citrobacter freundii E-9. In words: Potentiating and synergistic effect, pulp disc inhibition zone on agar plate. In kind it is cell-based. Here is the method: (§4) 10 ml of 2.5 folds diluted nutrient agar (pH 7.0) containing 50 μg/ml of penicillin G or cephaloridine was seeded with the β-lactamase producing and β-lactam-resistant microorganisms and poured in a 9 cm Petri dish to provide the bio-assay agar plate. On this assay plate, 8 mm of pulp discs each containing 20 μl of antibiotic PS-6 solution at the concentration of 240 μg/ml were placed and incubated at 35° C. for 18 hours before reading the inhibition zones. A control assay plate was similarly prepared without penicillin G or cephaloridine. As reference antibiotics, 10,000 μg/ml of penicillin G or 20 μl of cephaloridine were disc-assayed under the same conditions.

Test [19] deals with Serratia marcescens S-18. The test is described as above. In kind it is cell-based. Here is the method: as §4
[20] abbreviates: E16, Table 7, no unit in the head, lactamase-producing strain.
Where [21] appears, read: E9, Table 7, no unit in the head, lactamase-producing strain.
Where [22] appears, read: B326, Table 7, no unit in the head.
Where [23] appears, read: Table 9, 10% of horse blood in the medium.
[24] abbreviates: Table 6, agar containing 50 μg/ml of cephaloridine, disc 20 μl, PS-6 240 μg/ml, reference antibiotics 10,000 μg/ml.
[25] abbreviates: Table 6, agar containing 50 μg/ml of penicillin G, disc 20 μl, PS-6 240 μg/ml, reference antibiotics 10,000 μg/ml.
Where [26] appears, read: Table 9, lactamase producing organism.

Structures are written as SMILES. Converted amounts (≈) assume the structure as drawn. Like-named read-outs stand apart in the source and are kept apart here.

Take `Cc1nnc(SCC2=C(C(=O)O)N3C(=O)[C@@H](NC(=O)Cn4cnnn4)[C@H]3SC2)s1` [Cefazorin]: the MIC was 1 µg/mL (≈ 2.2 µM) in test [1]; 0.25 µg/mL (≈ 0.55 µM) in test [2]; more than 100 µg/mL in test [3] (setting [20]); 6.25 µg/mL (≈ 13.8 µM) in test [4]; more than 100 µg/mL with Proteus sp. P-22; 25 µg/mL (≈ 55 µM) with Proteus rettgeri P-7. Further, the MIC in the test on Enterobacter sp. E-8 was 3.13 µg/mL (≈ 6.89 µM); in the test with Citrobacter freundii E-9 [5] (E9, 20 h), more than 100 µg/mL; with Citrobacter freundii E-9 [5] (setting [21]), more than 100 µg/mL; in test [6] (B326, Table 5, 35° C. 20 hours), 6.25 µg/mL (≈ 13.8 µM); in test [6] (setting [22]), 6.25 µg/mL (≈ 13.8 µM); in test [7] (Table 5, 35° C. 20 hours), 0.25 µg/mL (≈ 0.55 µM). Further, the MIC in test [8] (20 h) is 0.125 µg/mL (≈ 0.275 µM); in test [8], 0.125 µg/mL (≈ 0.275 µM); in test [9], 0.5 µg/mL (≈ 1.1 µM); in [10] it was more than 100 µg/mL; with Providencia sp. P-8, 50 µg/mL (≈ 110 µM); with Serratia marcescens S-18 [11], more than 100 µg/mL. Besides, the MIC was 0.25 µg/mL (≈ 0.55 µM) in test [12], more than 100 µg/mL with Proteus vulgaris P-5 [13], 6.25 µg/mL (≈ 13.8 µM) with Proteus mirabilis P-6 and 0.5 µg/mL (≈ 1.1 µM) in test [14].

In the case of `CO[C@@]1(NC(=O)Cc2cccs2)C(=O)N2C(C(=O)O)=C(COC(N)=O)CS[C@@H]21` [Cefoxitin], the MIC in test [1] is 5 µg/mL (≈ 11.7 µM); in test [15] (Streptococcus pneumoniae, Table 7, no unit in the head, horse serum in the medium at 10%, read-out: Minimum inhibitory concentration), 2.5 µg/mL (≈ 5.85 µM); in test [2], 1.25 µg/mL (≈ 2.92 µM); in test [3] (E16, 20 h, Table 5, betalactamase producer), more than 100 µg/mL; in test [3] (setting [20]) it was more than 100 µg/mL; in [4], 6.25 µg/mL (≈ 14.6 µM). In addition, the MIC is 12.5 µg/mL (≈ 29.2 µM) in the test on Enterobacter sp. E-8; more than 100 µg/mL with Citrobacter freundii E-9 [5] (E9, 20 h, Table 5, betalactamase producer); more than 100 µg/mL with Citrobacter freundii E-9 [5] (setting [21]); 1.56 µg/mL (≈ 3.65 µM) in [6] (B326, Table 5, 35° C. 20 hours); 1.56 µg/mL (≈ 3.65 µM) in [6] (setting [22]); 2.5 µg/mL (≈ 5.85 µM) in test [7] (Table 5, 35° C. 20 hours). The MIC was 2.5 µg/mL (≈ 5.85 µM) in test [8] (20 h, Table 5, 10% horse blood supplemented into the medium); 1.25 µg/mL (≈ 2.92 µM) in test [9]; more than 100 µg/mL in test [10]; 50 µg/mL (≈ 117 µM) in the test on Serratia marcescens S-18 [11]; 2.5 µg/mL (≈ 5.85 µM) in test [12]; 2.5 µg/mL (≈ 5.85 µM) in [14].

`O=C(Cc1cccs1)N[C@@H]1C(=O)N2C(C(=O)[O-])=C(C[n+]3ccccc3)CS[C@H]12` [cephaloridine]: the Minimum inhibitory concentration in [15] (setting [23]) was 0.01 µg/mL (≈ 0.0241 µM); in test [2] (setting [23]) it was 0.01 µg/mL (≈ 0.0241 µM); in test [3] (setting [26]) it was more than 100 µg/mL; in test [4] (setting [26]) it was 20.0 µg/mL (≈ 48.1 µM); with Citrobacter freundii E-9 [5] (setting [26]) it was more than 100 µg/mL; in test [6] (Table 9) it was 3.13 µg/mL (≈ 7.53 µM). Also, the Minimum inhibitory concentration in test [12] (Table 9, ester dissolved in methanol, final methanol not above 10%) was 0.04 µg/mL (≈ 0.0963 µM); in the test on Proteus vulgaris P-5 [13] (setting [26]), more than 100 µg/mL. Besides, the zone of inhibition at 10000 µg/mL with Proteus vulgaris P-5 [16] (Proteus vulgaris, P5, 18 h, read-out: Diameter of inhibitory zone, No addition) was 12 mm. The zone of inhibition at 240 µg/mL stood at 12 mm with Proteus vulgaris P-5 [16] (Proteus vulgaris, P5, 18 h, read-out: Inhibition zone, Control); 12 mm with Citrobacter freundii E-9 [18] (Citrobacter freundii, E9, 18 h, read-out: Inhibition zone, Control); 11 mm in the test on Serratia marcescens S-18 [19] (Serratia marcescens, S18, 18 h, read-out: Inhibition zone, Control). Further, the “Inhibition zone, with cephaloridine” value is reported as 12.0 mm with Proteus vulgaris P-5 [16] (setting [24]), 12.0 mm in the test on Citrobacter freundii E-9 [18] (setting [24]) and 11.0 mm with Serratia marcescens S-18 [19] (setting [24]). Also, the “Inhibition zone, with penicillin G” value came out at 12.0 mm in the test on Proteus vulgaris P-5 [16] (setting [25]), 12.0 mm in the test on Citrobacter freundii E-9 [18] (setting [25]) and 11.0 mm in the test on Serratia marcescens S-18 [19] (setting [25]). In addition, the “Diameter of inhibitory zone, Cephaloridine-added” value with Proteus vulgaris P-5 [16] (Table 8, comparison disc 20 μl of 10,000 μg/ml, cephaloridine in the agar) was found to be 12.0 mm. Further, the MIC in [2] was 0.01 µg/mL (≈ 0.0241 µM); in [3] (E16, 20 h), more than 100 µg/mL; in [4], 20 µg/mL (≈ 48.1 µM); with Citrobacter freundii E-9 [5] (E9, 20 h) it was more than 100 µg/mL; in [6] (B326, 20 h) it was 3.13 µg/mL (≈ 7.53 µM); in test [7] (20 h), 0.04 µg/mL (≈ 0.0963 µM). In addition, the MIC in test [8] (20 h) was 0.01 µg/mL (≈ 0.0241 µM); in the test with Proteus vulgaris P-5 [13] it was more than 100 µg/mL. Further, the “Synergistic enhancement of the activity of penicillin G or cephaloridine (β-lactam antibiotics)” value in [17] is “no synergistic effect”; in test [17] (listed as Cephaloridine) it was “No enhancement of antimicrobial activity”.
